Literature values in patent US11571373B2, “Skin care preparations for babies” (priority 2015, dated 2023).

Key:
[1] = in vivo
[2] = species and route not given
[3] = tested on: rat

Compound: Tocopherol
- average absorption [1]: 40-60%
- share transported via the lymphatic system into the bloodstream [1]: About 90%
- extent of oral absorption ([1]; po): 20-80%

Compound: [O-2].[Zn+2] [Zinc oxide (CI 77947), Zinc oxide]
- solubility in water: 0.00016 g/100 ml water

Compound: Disodium Laureth Sulfosuccinate
- The actual or estimated LD50 value [2]: 5,000 mg/kg body weight

Compound: C12-C13 Pareth-4
- The actual or estimated LD50 value [2]: 2,000 mg/kg body weight

Compound: Sodium Cocoamphoacetate
- The actual or estimated LD50 value [2]: 14,859 mg/kg body weight
- Oral LD50 value (rat) [3]: 14,859 mg/kg
